Earlier results, collected in patent publication US8067364B2, “Deer antler extract for promoting angiogenesis” (Velvet Antler Research New Zealand Limited (VARNZ), priority 2003, dated 2011).
No end group written: not given here.

Tests used:
[1] = tested on: endothelial cells, wounds; settings: literature
[2] = tested on: wounds; settings: delivered by gene therapy, local sustained delivery; literature

Substance | endothelial cell migration, angiogenesis, and wound healing [1] | angiogenesis and wound healing [2]
Thymosin α1: peptide of the Thymosin family, potential wound healing agent (Ac-SDAAVDTSSEITTKDLKEKKEVVEEAEN; ends and bridges not checked; UniProt P06454 2-29, looked up) | stimulates endothelial cell migration, angiogenesis, and wound healing | –
VEGF | – | cause angiogenesis and enhanced wound healing
